For one assay, the system named is p62. The assay can be described thus: p62 expression measurement. The class given is cell-based. The source says:
The autophagy-inducing effect has been assessed by LC3 lipidation assay and by p62 expression measurement.

Assay [1] has as its system H1N1 (influenza A/New Caledonia/20/99). The assay can be described thus: microbe, parasite or virus in culture. The class given is cell-based.
[2] abbreviates: Influenza A virus, H1N1, A549, 48 h.

Where two headings read alike, the source gives them in different places.

A word on the IC50: it is the concentration needed to halve the response being measured. Low readings indicate higher potency, high ones lower potency. For the compound `O=C(Nc1ccc(Cl)cc1)c1c(NC(=O)C2CCCCC2C(=O)O)sc2ccccc12` (centres unmarked) [Compound 41, 2-[[3-[(4-Chlorophenyl)carbamoyl]benzothiophen-2-yl]carbamoyl]cyclohexane carboxylic acid], in the assay with p62, the “p62 expression*” value is reported as “down”. Moreover, the IC50 in assay [1] (setting [2]) was found to be 3.53 µM.
Regarding `O=C(Nc1ccc(Cl)cc1)c1c(NC(=O)C2CCCCC2C(=O)O)sc2cscc12` (centres unmarked) [Compound 42, 2-[[3-[(4-Chlorophenyl)carbamoyl]thieno[3,4-b]thiophen-2-yl]carbamoyl]cyclohexanecarboxylic acid], the “p62 expression*” value in the assay with p62 is reported as “down”. For the same compound, the midpoint of inhibition in assay [1] (setting [2]), the IC50, lay at 3.08 µM.
Take `O=C(Nc1ccc(Cl)cc1)c1c(NC(=O)C2CCCCC2C(=O)O)sc2c1CCC2` (stereo not drawn) [Compound 57, 2-[[3-[(4-Chlorophenyl)carbamoyl]-5,6-dihydro-4H-cyclopenta[b]thiophen-2-yl]carbamoyl]cyclohexane-cis-carboxylic acid]: the “p62 expression*” value in the assay on p62 is reported as “down”. Further, the IC50 in assay [1] is 7.18 µM.
Compound `O=C(Nc1ccc(Cl)cc1)c1c(NC(=O)N2CCCCC2C(=O)O)sc2c1CCC2` (centres unmarked) [Compound 89, 1-[[3-[(4-chlorophenyl)carbamoyl]-5,6-dihydro-4H-cyclopenta[b]thiophen-2-yl]carbamoyl]piperidine-2-carboxylic acid] displayed an IC50 in assay [1] (setting [2]) of 8.8 µM.
Compound `NC(=O)N1CCCC(C(=O)Nc2sc3c(c2C(=O)Nc2ccc(Cl)cc2)CCC3)C1` (centres unmarked) [Compound 92, N3-[3-[(4-chlorophenyl)carbamoyl]-5,6-dihydro-4H-cyclopenta[b]thiophen-2-yl]piperidine-1,3-dicarboxamide] showed an IC50 in assay [1] (setting [2]) of 11.4 µM. The IC50 values of the last two compounds are within 1.5-fold of each other.
In the case of `CS(=O)(=O)N1CCOCC1C(=O)Nc1sc2c(c1C(=O)Nc1ccc(Cl)cc1)CCC2` (centres unmarked) [Compound 93, N-[3-[(4-chlorophenyl)carbamoyl]-5,6-dihydro-4H-cyclopenta[b]thiophen-2-yl]-4-methylsulfonyl-morpholine-3-carboxamide], in assay [1] (setting [2]), half-maximal inhibition (IC50) was put at 12.7 µM.
The same measure, in the same setting: under `O=C(Nc1ccc(Cl)cc1)c1c(NC(=O)C2COC2)sc2c1CCC2` [Compound 94, N-[3-[(4-chlorophenyl)carbamoyl]-5,6-dihydro-4H-cyclopenta[b]thiophen-2-yl]oxetane-3-carboxamide] stands 12.9 µM; under `CS(=O)(=O)N1CCCC(C(=O)Nc2sc3c(c2C(=O)Nc2ccc(Cl)cc2)CCC3)C1` (centres unmarked) [Compound 95, N-[3-[(4-chlorophenyl)carbamoyl]-5,6-dihydro-4H-cyclopenta[b]thiophen-2-yl]-1-methylsulfonyl-piperidine-3-carboxamide], 13.7 µM.
For the compound `O=C(Nc1ccc(Cl)cc1)c1c(NC(=O)C2CCN2)sc2c1CCC2` (centres unmarked) [Compound 96, N-[3-[(4-chlorophenyl)carbamoyl]-5,6-dihydro-4H-cyclopenta[b]thiophen-2-yl]azetidine-2-carboxamide], 14.1 µM corresponded to half-maximal inhibition in assay [1] (setting [2]) (IC50).
In assay [1] (setting [2]), `O=C(Nc1ccc(Cl)cc1)c1c(NC(=O)C2CCCC(C(=O)O)C2)sc2c1CCC2` (centres unmarked) [Compound 99, 3-[[3-[(4-chlorophenyl)carbamoyl]-5,6-dihydro-4H-cyclopenta[b]thiophen-2-yl]carbamoyl]cyclohexanecarboxylic acid] came in with an IC50 of 16.6 µM.
On the same count and under the same terms, next, `CS(=O)(=O)N1CCCCC1C(=O)Nc1sc2c(c1C(=O)Nc1ccc(Cl)cc1)CCC2` (centres unmarked) [Compound 100, N-[3-[(4-chlorophenyl)carbamoyl]-5,6-dihydro-4H-cyclopenta[b]thiophen-2-yl]-1-methylsulfonyl-piperidine-2-carboxamide]: 16.6 µM.
Still for that read-out and setting: under `O=C1CC(C(=O)Nc2sc3c(c2C(=O)Nc2ccc(Cl)cc2)CCC3)CCN1` (centres unmarked) [Compound 101, N-[3-[(4-chlorophenyl)carbamoyl]-5,6-dihydro-4H-cyclopenta[b]thiophen-2-yl]-2-oxo-piperidine-4-carboxamide] stands 19 µM; under `NS(=O)(=O)N1CCC1C(=O)Nc1sc2c(c1C(=O)Nc1ccc(Cl)cc1)CCC2` (centres unmarked) [Compound 102, N-[3-[(4-chlorophenyl)carbamoyl]-5,6-dihydro-4H-cyclopenta[b]thiophen-2-yl]-1-sulfamoyl-azetidine-2-carboxamide], 20.9 µM.
For `O=C(Nc1ccc(Cl)cc1)c1c(NC(=O)C2COCCN2)sc2c1CCC2` (centres unmarked) [Compound 103, N-[3-[(4-chlorophenyl)carbamoyl]-5,6-dihydro-4H-cyclopenta[b]thiophen-2-yl]morpholine-3-carboxamide], the midpoint of inhibition in assay [1] (setting [2]), the IC50, lay at 24.2 µM.

Source of the values: patent US11279683B2, “Thiophene derivatives as antiviral agents” (ENYO PHARMA, priority 2016, dated 2022).
